We go through six compounds from patent US10266577B2, “GLP-1 derivatives, and uses thereof” (Novo Nordisk A/S, priority 2013, dated 2019).

The structures appear in SMILES notation. pIC50: −log10 of the molar value. Numbered stars: 1 amine (or outer) side, 2 acyl side, 3 side chain; on linkers, the order of the positions; unused ones are H or OH. Square brackets hold non-standard residues; d marks the D form. Side chains are listed from the residue outwards. Peptide text beside a SMILES is read from it. * marks the point of attachment. Hexadecanoyl(16-SO3H) = O=C(CCCCCCCCCCCCCCCS(=O)(=O)O)*; C18 diacid = O=C(O)CCCCCCCCCCCCCCCCC(=O)*; γGlu = O=C(O)[C@H](CCC(=O)[*:2])N[*:1]; εLys = N[C@@H](CCCCN[*:1])C(=O)[*:2]; Cya = N[C@@H](CS(=O)(=O)O)C(=O)O; Trx = NC[C@H]1CC[C@H](C(=O)O)CC1; AEEA = NCCOCCOCC(=O)O; Aib = CC(C)(N)C(=O)O

One data set deals with T1, human GLP-1 receptor (Homo sapiens, UniProt P43220).
T1 construct: expressed in transfected cells; host or cells: BHK cells (parent line BHKTS13), clone FCW467-12A; membrane preparation
T1 sequence (P43220 24-463): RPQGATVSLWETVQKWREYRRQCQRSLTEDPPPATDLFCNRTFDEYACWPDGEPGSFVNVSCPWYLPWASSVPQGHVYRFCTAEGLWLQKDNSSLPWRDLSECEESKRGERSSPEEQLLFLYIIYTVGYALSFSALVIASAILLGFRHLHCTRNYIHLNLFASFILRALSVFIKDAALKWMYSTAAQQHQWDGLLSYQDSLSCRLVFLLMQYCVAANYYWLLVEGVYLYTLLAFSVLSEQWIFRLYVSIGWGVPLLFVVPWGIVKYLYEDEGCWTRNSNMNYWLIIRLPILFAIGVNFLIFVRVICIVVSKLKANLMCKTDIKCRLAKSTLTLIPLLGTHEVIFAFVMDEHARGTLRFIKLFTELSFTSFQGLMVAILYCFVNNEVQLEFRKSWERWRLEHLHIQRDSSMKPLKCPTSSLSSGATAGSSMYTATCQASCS
The data set is described as follows: GLP-1 receptor binding: competitive binding assay (125I-GLP-1, SPA) on isolated membranes at low and high HSA. Conditions: high serum albumin (2.0% HSA final assay concentration); displacement of 125I-GLP-1. Background: Loss of bound radioactivity is the signal in a displacement assay; it reports binding, not function.

The nature of a further data set: in vivo. As to conditions: male, Göttingen, minipig, iv.

Method for human GLP-1 receptor: The purpose of this example is to test the receptor binding of the GLP-1 derivatives in vitro. The receptor binding is a measure of affinity of a derivative for the human GLP-1 receptor.
In this type of assay a labelled ligand (in this case ^125I-GLP-1) is bound to the receptor. Each derivative is added in a series of concentrations to isolated membranes containing the human GLP-1 receptor and displacement of the labelled ligand is monitored. The receptor binding is reported as the concentration at which half of the labelled ligand is displaced from the receptor, the IC50 value.
The following chemicals were used in the assay: Human serum albumin (HSA) (Sigma A1653), DMEM w/o phenol red (Gibco 11880-028), Pen/strep (Invitrogen 15140-122), G418 (Invitrogen 10131-027), 1 M Hepes (Gibco 15630), EDTA (Invitrogen 15575-038), PBS (Invitrogen 14190-094), fetal calf serum (Invitrogen 16140-071), EGTA, MgCl2 (Merck 1.05832.1000), Tween 20 (Amresco 0850C335), SPA particles (wheat germ agglutinin (WGA) SPA beads, Perkin Elmer RPNQ0001), [^125I]-GLP-1]-(7-36)NH2 (produced in-house), OptiPlate™-96 (Packard 6005290).
Buffer 1 consisted of 20 mM Na-HEPES plus 10 mM EDTA and pH was adjusted to 7.4. Buffer 2 consisted of 20 mM Na-HEPES plus 0.1 mM EDTA and pH was adjusted to 7.4. Assay buffer consisted of 50 mM HEPES supplemented with 5 mM EGTA, 5 mM MgCl2, 0.005% Tween 20 and pH was adjusted to 7.4. An 8% albumin stock consisted of HSA dissolved at 8% (w/v) in assay buffer. An 0.02% albumin stock consisted of HSA dissolved at 0.02% (w/v) in assay buffer.
The cells express the human GLP-1 receptor.
The cells were grown at 5% CO2 in DMEM, 10% fetal calf serum, 1% Pen/Strep (Penicillin/Streptomycin) and 1.0 mg/ml of the selection marker G418.
To make a membrane preparation the cells were grown to approximately 80% confluence. The cells were washed twice in phosphate-buffered saline and harvested. The cells were pelleted using a brief centrifugation and the cell pellet was kept on ice. The cell pellet was homogenised with ULTRA-THURRAX™ dispersing instrument for 20-30 seconds in a suitable amount of buffer 1 (e.g., 10 ml). The homogenate was centrifuged for 15 minutes. The pellet was re-suspended (homogenised) in 10 ml buffer 2 and centrifuged. This step was repeated once more. The resulting pellet was re-suspended in buffer 2 and the protein concentration was determined. The membranes were aliquoted and stored at minus 80° C.
For the receptor binding assay in the presence of low HSA (0.005%) 50 μl of the assay buffer was added to each well of an assay plate. Assay continued with step 3.
For the receptor binding assay in the presence of high HSA (2%) 50 μl of the 8% albumin stock was added to each well of an assay plate. Assay continued with step 3.
Cell membrane aliquots were thawed and diluted to their working concentration. Fifty μl were added to each well in the assay plate.
WGA SPA beads were suspended in assay buffer at 20 mg/ml. The suspension was diluted to 10 mg/ml in assay buffer just prior to addition to the assay plate. Fifty μl were added to each well in the assay plate.
The incubation was started by adding 25 μl of 480 pM solution of [^125I]-GLP-1]-(7-36)NH2 to each well of the assay plate. A 25 μl aliquot was reserved for measuring total counts/well.
The assay plate was incubated for 2 h at 30° C.
The assay plate was centrifuged for 10 min.
The assay plate was read in a Packard TopCount NXT instrument.
The data from the TopCount instrument were transferred to GraphPad Prism software. The software averaged the values for the replicates and performed a non-linear regression. IC50 values were calculated by the software and reported in nM.
Method for in vivo: The purpose of this study is to determine the protraction in vivo of the GLP-1 derivatives after i.v. administration to minipigs, i.e. the prolongation of their time in the body and thereby their time of action. This is done in a pharmacokinetic (PK) study, where the terminal half-life of the derivative in question is determined. By terminal half-life is meant the time it takes to halve a certain plasma concentration in the terminal elimination phase.
Male Göttingen minipigs were obtained from Ellegaard Göttingen Minipigs (Dalmose, Denmark) approximately 7-14 months of age and weighing approximately 16-35 kg were used in the studies. The minipigs were housed either individually (pigs with permanent catheters) or in a group and fed restrictedly once or twice daily with SDS minipig diet (Special Diets Services, Essex, UK).
After at least 2 weeks of acclimatisation two permanent central venous catheters were implanted in vena cava caudalis or cranialis in each animal. The animals were allowed 1 week recovery after the surgery, and were then used for repeated pharmacokinetic studies with a suitable wash-out period between successive GLP-1 derivative dosings.
Blood samples (for example 0.8 ml) were collected in EDTA buffer (8 mM) and then centrifuged at 4° C. and 1942G for 10 minutes.
Plasma was pipetted into Micronic tubes on dry ice, and kept at −20° C. until analysed for plasma concentration of the respective GLP-1 compound using LOCI. Individual plasma concentration-time profiles were analyzed by a non-compartmental pharmacokinetic method in Phoenix v. 6.2 (Pharsight Inc., Mountain View, Calif., USA), or other relevant software for PK analysis, and the resulting terminal half-lives (harmonic mean) determined.

For orientation: pIC50 means −log10 of the IC50, conventionally taken in molar units. A higher pIC50 goes with a small IC50. In the case of `CC[C@H](C)[C@H](NC(=O)[C@H](Cc1ccccc1)NC(=O)[C@H](CCC(=O)O)NC(=O)[C@H](CCCCNC(=O)[C@@H](N)CCCCNC(=O)COCCOCCNC(=O)COCCOCCNC(=O)CC[C@H](NC(=O)CCCCCCCCCCCCCCCCC(=O)O)C(=O)O)NC(=O)[C@H](C)NC(=O)[C@H](C)NC(=O)[C@H](CCC(N)=O)NC(=O)[C@H](CCC(=O)O)NC(=O)[C@H](CCC(=O)O)NC(=O)[C@H](CC(C)C)NC(=O)[C@H](Cc1ccc(O)cc1)NC(=O)[C@H](CO)NC(=O)[C@H](CO)NC(=O)[C@@H](NC(=O)[C@H](CC(=O)O)NC(=O)[C@H](CO)NC(=O)[C@@H](NC(=O)[C@H](Cc1ccccc1)NC(=O)[C@@H](NC(=O)CNC(=O)[C@H](CCC(=O)O)NC(=O)C(C)(C)NC(=O)[C@@H](N)Cc1c[nH]cn1)[C@@H](C)O)[C@@H](C)O)C(C)C)C(=O)N[C@@H](CCCCNC(=O)[C@@H](N)CCCCNC(=O)COCCOCCNC(=O)COCCOCCNC(=O)CC[C@H](NC(=O)CCCCCCCCCCCCCCCCC(=O)O)C(=O)O)C(=O)N[C@@H](Cc1c[nH]c2ccccc12)C(=O)N[C@@H](CC(C)C)C(=O)N[C@H](C(=O)N[C@@H](CCCNC(=N)N)C(=O)NCC(=O)N[C@@H](CCCNC(=N)N)C(=O)N[C@@H](CCCCNC(=O)[C@@H](N)CCCCNC(=O)COCCOCCNC(=O)COCCOCCNC(=O)CC[C@H](NC(=O)CCCCCCCCCCCCCCCCC(=O)O)C(=O)O)C(=O)O)C(C)C` [Example 11] (H-H[Aib]EGTFTSDVSSYLEEQAAK([εLys-AEEA-AEEA-γGlu-C18 diacid])EFIK([εLys-AEEA-AEEA-γGlu-C18 diacid])WLVRGRK([εLys-AEEA-AEEA-γGlu-C18 diacid])-OH; N-terminus and C-terminus assumed), the pIC50 at human GLP-1 receptor is < 6.00. For orientation: half-life means the time in which the quantity being followed falls by half. A low value points to rapid decline. Regarding `CC[C@H](C)[C@H](NC(=O)[C@H](Cc1ccccc1)NC(=O)[C@H](CCC(=O)O)NC(=O)[C@H](CCCCNC(=O)[C@@H](N)CCCCNC(=O)COCCOCCNC(=O)COCCOCCNC(=O)[C@H](CS(=O)(=O)O)NC(=O)CCCCCCCCCCCCCCCS(=O)(=O)O)NC(=O)[C@H](C)NC(=O)[C@H](C)NC(=O)[C@H](CCC(N)=O)NC(=O)[C@H](CCC(=O)O)NC(=O)[C@H](CCC(=O)O)NC(=O)[C@H](CC(C)C)NC(=O)[C@H](Cc1ccc(O)cc1)NC(=O)[C@H](CO)NC(=O)[C@H](CO)NC(=O)[C@@H](NC(=O)[C@H](CC(=O)O)NC(=O)[C@H](CO)NC(=O)[C@@H](NC(=O)[C@H](Cc1ccccc1)NC(=O)[C@@H](NC(=O)CNC(=O)[C@H](CCC(=O)O)NC(=O)C(C)(C)NC(=O)[C@@H](N)Cc1c[nH]cn1)[C@@H](C)O)[C@@H](C)O)C(C)C)C(=O)N[C@@H](CCCCNC(=O)[C@@H](N)CCCCNC(=O)COCCOCCNC(=O)COCCOCCNC(=O)[C@H](CS(=O)(=O)O)NC(=O)CCCCCCCCCCCCCCCS(=O)(=O)O)C(=O)N[C@@H](Cc1c[nH]c2ccccc12)C(=O)N[C@@H](CC(C)C)C(=O)N[C@H](C(=O)N[C@@H](CCCNC(=N)N)C(=O)NCC(=O)N[C@@H](CCCNC(=N)N)C(=O)N[C@@H](CCCCNC(=O)[C@@H](N)CCCCNC(=O)COCCOCCNC(=O)COCCOCCNC(=O)[C@H](CS(=O)(=O)O)NC(=O)CCCCCCCCCCCCCCCS(=O)(=O)O)C(=O)O)C(C)C` [Example 12], in the data set “in vivo”, the half-life was 111 h. Still for that read-out and setting: next, `CC[C@H](C)[C@H](NC(=O)[C@H](Cc1ccccc1)NC(=O)[C@H](CCC(=O)O)NC(=O)[C@H](CCCCNC(=O)[C@@H](N)CCCCNC(=O)[C@H](CO)NC(=O)[C@H](CO)NC(=O)[C@H](CO)NC(=O)[C@H](CO)NC(=O)[C@H](CO)NC(=O)CC[C@H](NC(=O)CCCCCCCCCCCCCCCCC(=O)O)C(=O)O)NC(=O)[C@H](C)NC(=O)[C@H](C)NC(=O)[C@H](CCC(N)=O)NC(=O)CNC(=O)[C@H](CCC(=O)O)NC(=O)[C@H](CC(C)C)NC(=O)[C@H](Cc1ccc(O)cc1)NC(=O)[C@H](CCCCNC(=O)[C@@H](N)CCCCNC(=O)[C@H](CO)NC(=O)[C@H](CO)NC(=O)[C@H](CO)NC(=O)[C@H](CO)NC(=O)[C@H](CO)NC(=O)CC[C@H](NC(=O)CCCCCCCCCCCCCCCCC(=O)O)C(=O)O)NC(=O)[C@H](CO)NC(=O)[C@@H](NC(=O)[C@H](CC(=O)O)NC(=O)[C@H](CO)NC(=O)[C@@H](NC(=O)[C@H](Cc1ccccc1)NC(=O)[C@@H](NC(=O)CNC(=O)[C@H](CCC(=O)O)NC(=O)C(C)(C)NC(=O)[C@@H](N)Cc1c[nH]cn1)[C@@H](C)O)[C@@H](C)O)C(C)C)C(=O)N[C@@H](C)C(=O)N[C@@H](Cc1c[nH]c2ccccc12)C(=O)N[C@@H](CC(C)C)C(=O)N[C@H](C(=O)N[C@@H](CCCNC(=N)N)C(=O)NCC(=O)N[C@@H](CCCNC(=N)N)C(=O)N[C@@H](CCCCNC(=O)[C@@H](N)CCCCNC(=O)[C@H](CO)NC(=O)[C@H](CO)NC(=O)[C@H](CO)NC(=O)[C@H](CO)NC(=O)[C@H](CO)NC(=O)CC[C@H](NC(=O)CCCCCCCCCCCCCCCCC(=O)O)C(=O)O)C(=O)O)C(C)C` [Example 3]: 120 h; `CC[C@H](C)[C@H](NC(=O)[C@H](Cc1ccccc1)NC(=O)[C@H](CCC(=O)O)NC(=O)[C@H](CCCNC(=N)N)NC(=O)[C@H](C)NC(=O)[C@H](C)NC(=O)[C@H](CCC(N)=O)NC(=O)[C@H](CCCCNC(=O)COCCOCCNC(=O)COCCOCCNC(=O)[C@H](CS(=O)(=O)O)NC(=O)CCCCCCCCCCCCCCCS(=O)(=O)O)NC(=O)[C@H](CCC(=O)O)NC(=O)[C@H](CC(C)C)NC(=O)[C@H](Cc1ccc(O)cc1)NC(=O)[C@H](CCCCNC(=O)COCCOCCNC(=O)COCCOCCNC(=O)[C@H](CS(=O)(=O)O)NC(=O)CCCCCCCCCCCCCCCS(=O)(=O)O)NC(=O)[C@H](CO)NC(=O)[C@@H](NC(=O)[C@H](CC(=O)O)NC(=O)[C@H](CO)NC(=O)[C@@H](NC(=O)[C@H](Cc1ccccc1)NC(=O)[C@@H](NC(=O)CNC(=O)[C@H](CCC(=O)O)NC(=O)C(C)(C)NC(=O)[C@@H](N)Cc1c[nH]cn1)[C@@H](C)O)[C@@H](C)O)C(C)C)C(=O)N[C@@H](CCCCNC(=O)COCCOCCNC(=O)COCCOCCNC(=O)[C@H](CS(=O)(=O)O)NC(=O)CCCCCCCCCCCCCCCS(=O)(=O)O)C(=O)N[C@@H](Cc1c[nH]c2ccccc12)C(=O)N[C@@H](CC(C)C)C(=O)N[C@H](C(=O)N[C@@H](CCCNC(=N)N)C(=O)NCC(=O)N[C@@H](CCCNC(=N)N)C(=O)NCC(=O)O)C(C)C` [Example 2] (H-H[Aib]EGTFTSDVSK([AEEA-AEEA-Cya-Hexadecanoyl(16-SO3H)])YLEK([AEEA-AEEA-Cya-Hexadecanoyl(16-SO3H)])QAAREFIK([AEEA-AEEA-Cya-Hexadecanoyl(16-SO3H)])WLVRGRG-OH; N-terminus and C-terminus assumed): 140 h; `CC[C@H](C)[C@H](NC(=O)[C@H](Cc1ccccc1)NC(=O)[C@H](CCC(=O)O)NC(=O)[C@H](CCCCNC(=O)[C@H](CO)NC(=O)[C@H](CO)NC(=O)[C@H](CO)NC(=O)[C@H](CO)NC(=O)[C@H](CO)NC(=O)[C@H](CO)NC(=O)CC[C@H](NC(=O)CCCCCCCCCCCCCCCCC(=O)O)C(=O)O)NC(=O)[C@H](C)NC(=O)[C@H](C)NC(=O)[C@H](CCC(N)=O)NC(=O)CNC(=O)[C@H](CCC(=O)O)NC(=O)[C@H](CC(C)C)NC(=O)[C@H](Cc1ccc(O)cc1)NC(=O)[C@H](CCCCNC(=O)[C@H](CO)NC(=O)[C@H](CO)NC(=O)[C@H](CO)NC(=O)[C@H](CO)NC(=O)[C@H](CO)NC(=O)[C@H](CO)NC(=O)CC[C@H](NC(=O)CCCCCCCCCCCCCCCCC(=O)O)C(=O)O)NC(=O)[C@H](CO)NC(=O)[C@@H](NC(=O)[C@H](CC(=O)O)NC(=O)[C@H](CO)NC(=O)[C@@H](NC(=O)[C@H](Cc1ccccc1)NC(=O)[C@@H](NC(=O)CNC(=O)[C@H](CCC(=O)O)NC(=O)C(C)(C)NC(=O)[C@@H](N)Cc1c[nH]cn1)[C@@H](C)O)[C@@H](C)O)C(C)C)C(=O)N[C@@H](C)C(=O)N[C@@H](Cc1c[nH]c2ccccc12)C(=O)N[C@@H](CC(C)C)C(=O)N[C@H](C(=O)N[C@@H](CCCNC(=N)N)C(=O)NCC(=O)N[C@@H](CCCNC(=N)N)C(=O)N[C@@H](CCCCNC(=O)[C@H](CO)NC(=O)[C@H](CO)NC(=O)[C@H](CO)NC(=O)[C@H](CO)NC(=O)[C@H](CO)NC(=O)[C@H](CO)NC(=O)CC[C@H](NC(=O)CCCCCCCCCCCCCCCCC(=O)O)C(=O)O)C(=O)O)C(C)C` [Example 8]: 138 h. As to `CC[C@H](C)[C@H](NC(=O)[C@H](Cc1ccccc1)NC(=O)[C@H](CCC(=O)O)NC(=O)[C@H](CCCNC(=N)N)NC(=O)[C@H](C)NC(=O)[C@H](C)NC(=O)[C@H](CCC(N)=O)NC(=O)[C@H](CCCCNC(=O)COCCOCCNC(=O)COCCOCCNC(=O)[C@H](CS(=O)(=O)O)NC(=O)[C@H]1CC[C@H](CNC(=O)CCCCCCCCCCCCCCCS(=O)(=O)O)CC1)NC(=O)[C@H](CCC(=O)O)NC(=O)[C@H](CC(C)C)NC(=O)[C@H](Cc1ccc(O)cc1)NC(=O)[C@H](CCCCNC(=O)COCCOCCNC(=O)COCCOCCNC(=O)[C@H](CS(=O)(=O)O)NC(=O)[C@H]1CC[C@H](CNC(=O)CCCCCCCCCCCCCCCS(=O)(=O)O)CC1)NC(=O)[C@H](CO)NC(=O)[C@@H](NC(=O)[C@H](CC(=O)O)NC(=O)[C@H](CO)NC(=O)[C@@H](NC(=O)[C@H](Cc1ccccc1)NC(=O)[C@@H](NC(=O)CNC(=O)[C@H](CCC(=O)O)NC(=O)C(C)(C)NC(=O)[C@@H](N)Cc1c[nH]cn1)[C@@H](C)O)[C@@H](C)O)C(C)C)C(=O)N[C@@H](CCCCNC(=O)COCCOCCNC(=O)COCCOCCNC(=O)[C@H](CS(=O)(=O)O)NC(=O)[C@H]1CC[C@H](CNC(=O)CCCCCCCCCCCCCCCS(=O)(=O)O)CC1)C(=O)N[C@@H](Cc1c[nH]c2ccccc12)C(=O)N[C@@H](CC(C)C)C(=O)N[C@H](C(=O)N[C@@H](CCCNC(=N)N)C(=O)NCC(=O)N[C@@H](CCCNC(=N)N)C(=O)NCC(=O)O)C(C)C` [Example 4] (H-H[Aib]EGTFTSDVSK([AEEA-AEEA-Cya-Trx-Hexadecanoyl(16-SO3H)])YLEK([AEEA-AEEA-Cya-Trx-Hexadecanoyl(16-SO3H)])QAAREFIK([AEEA-AEEA-Cya-Trx-Hexadecanoyl(16-SO3H)])WLVRGRG-OH; N-terminus and C-terminus assumed), the half-life in “in vivo” is 120 h.
